From ChEMBL document CHEMBL5113500, “New brefeldin A-cinnamic acid ester derivatives as potential antitumor agents: Design, synthesis and biological evaluation” (Eur J Med Chem, 2022) come the findings set out here.

By IC50 is commonly meant the concentration needed to halve the response being measured. A higher IC50 goes with weaker potency in that assay. A word on the solubility: it is the dissolved amount per volume that the medium holds. Read a low solubility as a poorly soluble substance.

Values after ≈ are worked out from the molar mass of the structure shown.

In data set [1] the test system is HepG2. The experiment in a line: Antiproliferative activity against human HepG2 cells measured after 72 hrs by MTT assay. The class given is functional, cell-based. The following applies: HepG2, 72 h. In general terms: Tetrazolium assays rely on reduction of a dye to a coloured formazan, in cell work by metabolically active cells.
The next data set has as its system Bel-7402. In words: Antiproliferative activity against human Bel-7402 cells measured after 72 hrs by MTT assay. It is filed as functional, cell-based. The settings on record: Bel-7402, 72 h.
A short description of data set [2]: Selectivity index, ratio of IC50 for human L02 cells to IC50 for human HepG2 cells. The following applies: L02 cells and HepG2 cells, read-out: Ratio IC50. It is filed as toxicity.
The subject of a further data set is HeLa. The experiment in a line: Antiproliferative activity against human HeLa cells measured after 72 hrs by MTT assay. It is filed as functional, cell-based.
Data set [3] has as its system HepG2. The experiment in a line: Antiproliferative activity against human HepG2 cells assessed as cell growth inhibition at 1 uM measured after 72 hrs by MTT assay relative to control. It is filed as functional. The following applies: read-out: GI.
For the next data set, the system named is ECa-109 cell line. The experiment in a line: Antiproliferative activity against human Eca-109 cells measured after 72 hrs by MTT assay. The class given is functional, cell-based. The settings on record: ECa-109, 72 h.
Another data set concerns PANC-1. The experiment in a line: Antiproliferative activity against human PANC-1 cells measured after 72 hrs by MTT assay. It is filed as functional, cell-based. The settings on record: PANC-1, 72 h.
Data set [4] in a line: Solubility of the compound in 5% DMSO and 10% Solutol HS-15 saline solution. The class given is physicochemical.
Data set [5] can be described thus: Cytotoxicity against human L02 cells measured after 72 hrs by MTT assay. The class given is toxicity, cell-based.

As for `C[C@H]1CCC/C=C/[C@@H]2C[C@H](O)C[C@H]2[C@H](O)/C=C/C(=O)O1` [BREFELDIN A], the concentration for half-maximal inhibition (IC50) in the data set with HepG2 [1] is 180 nM; in the data set on Bel-7402, 170 nM; with HeLa it was 70 nM; in the data set on ECa-109 cell line, 140 nM; with PANC-1, 80 nM. Also, in [2], the selectivity ratio came to 0.56. Besides, in the data set with HepG2 [3], the inhibition of growth at 1 µM was 94.4%. In [4], this compound displayed a solubility of 1000 µg/mL (≈ 3.57 mM). The same compound showed an IC50 at 72 h in data set [5] of 100 nM.

With `Cc1ccccc1/C=C/C(=O)O[C@@H]1C[C@H]2[C@H](O)/C=C/C(=O)O[C@@H](C)CCC/C=C/[C@@H]2C1`, the IC50 was 2980 nM with HepG2 [1]; 2320 nM with Bel-7402; greater than 4000 nM with HeLa; greater than 4000 nM in the data set on ECa-109 cell line; 2790 nM with PANC-1. Besides, the inhibition of growth at 1 µM in the data set with HepG2 [3] was found to be 28.9%.

Regarding `COc1cc(/C=C/C(=O)O[C@@H]2/C=C/C(=O)O[C@@H](C)CCC/C=C/[C@@H]3C[C@H](O)C[C@H]32)cc(OC)c1OC`, the IC50 was found to be 720 nM in the data set with HepG2 [1]; 1370 nM with Bel-7402; 1580 nM with HeLa; 2100 nM with ECa-109 cell line; 820 nM in the data set with PANC-1. Also, the inhibition of growth at 1 µM in the data set with HepG2 [3] amounted to 65.1%.

On to `C[C@H]1CCC/C=C/[C@@H]2C[C@H](O)C[C@H]2[C@H](OC(=O)/C=C/c2ccc3c(c2)OCO3)/C=C/C(=O)O1`, for which the IC50 in the data set on HepG2 [1] is 1350 nM; in the data set on Bel-7402 it was 1070 nM; in the data set on HeLa it was 1650 nM; in the data set with ECa-109 cell line, 2200 nM; in the data set with PANC-1 it was 870 nM. The inhibition of growth at 1 µM in the data set with HepG2 [3] amounted to 54.5%.

Consider `Cc1ccccc1/C=C/C(=O)O[C@@H]1/C=C/C(=O)O[C@@H](C)CCC/C=C/[C@@H]2C[C@H](O)C[C@H]21`, for which the IC50 came out at 1860 nM in the data set on HepG2 [1]; 1770 nM in the data set on Bel-7402; 750 nM in the data set with HeLa; 2680 nM in the data set on ECa-109 cell line; 630 nM in the data set on PANC-1. Also, the inhibition of growth at 1 µM in the data set on HepG2 [3] was found to be 37.1%.
